Results from the Deep4Chem optical property database.
Blank lines part the entries; values can stand above or below the compound they belong to.

Experiment: solvent given as SMILES
[1] = in c1ccc2c(c1)c1ccccc1n2-c1ccc(-c2ccc(-n3c4ccccc4c4ccccc43)cc2)cc1

- emission maximum (in C1CCCCC1): 380 nm
- emission maximum (in C1CCOC1): 428 nm
- emission maximum (in CC#N): 480 nm
- emission maximum (in CCOC(C)=O): 428 nm
- emission maximum (in ClCCCl): 450 nm
- emission maximum (in c1ccccc1): 412 nm
SMILES: CCCCCCCCCCCCCCCCOC(=O)c1ccc(N(c2ccccc2)c2ccccc2)cc1

- emission maximum (in ClCCl): 440 nm
SMILES: O=C1c2cccc3c(C#CC#Cc4ccc5c6c(cccc46)C(=O)N(c4ccccc4)C5=O)ccc(c23)C(=O)N1c1ccccc1

- emission maximum (in CC#N): 510 nm
SMILES: N#Cc1ccc(C=C2Oc3cccc(O)c3C2=O)cc1

- emission maximum (in CCO): 460 nm
SMILES: Cc1ccc(C(=O)OCc2c(C)c(=O)n3c(=O)c(C)c(C)n23)cc1

- emission maximum (in CC#N): 358 nm
- emission maximum (in CO): 358 nm
- emission maximum (in O): 360 nm
SMILES: CNCCCC1c2ccccc2C=Cc2ccccc21

SMILES: COOCc1noc(-c2ccccc2)c1Cl
- emission maximum (in C1CCCCC1): 345 nm

SMILES: CC1(C)[C@@H]2CC[C@]1(C)c1nc3cc(-c4cccs4)ccc3nc12
- emission maximum (in CC#N): 418 nm
- emission maximum (in CCCCCC): 402 nm
- emission maximum (in CCCCO): 442 nm
- emission maximum (in CCO): 446 nm
- emission maximum (in CCOC(C)=O): 406 nm
- emission maximum (in CO): 451 nm
- emission maximum (in Cc1ccccc1): 402 nm
- emission maximum (in ClC(Cl)Cl): 415 nm
- emission maximum (in ClCCl): 413 nm

- emission maximum (in ClC(Cl)Cl): 430 nm
SMILES: Cc1ccc2nc3c4c(c5ccccc5c3nc2c1)OC(=O)CC4c1ccc(C(F)(F)F)cc1 (stereo not drawn)

SMILES: Cc1c(C2=[N+]3C(=Cc4c(C)c5ccccc5n4[B-]3(F)F)c3ccccc32)[nH]c2ccccc12
- emission maximum (in C1CCOC1): 646 nm
- emission maximum (in CC#N): 637 nm
- emission maximum (in CCCCCC): 644 nm
- emission maximum (in CO): 643 nm
- emission maximum (in Cc1ccccc1): 656 nm
- emission maximum (in ClCCl): 648 nm

- emission maximum (in ClCCl): 494 nm
SMILES: CCB1c2ccccc2Nc2ccccc21

- emission maximum (in C1CCCCC1): 640 nm
- emission maximum (in CCOC(C)=O): 679 nm
SMILES: CC1=[N+]2C(=C(c3ccccc3C)c3ccc(C)n3[B-]2(F)F)C=C1c1cc2n(c1)[B-](F)(F)[N+]1=CC=CC1=C2c1c(C)cc(C)cc1C

- emission maximum (in ClC(Cl)Cl): 437 nm
SMILES: C=C[Si](c1c2ccccc2cc2ccccc12)(c1c2ccccc2cc2ccccc12)c1c2ccccc2cc2ccccc12

- emission maximum (in ClCCl): 419 nm
SMILES: ClP1(Cl)=N[P@](Cl)(Oc2ccc3ccc4cccc5ccc2c3c45)=N[P@@](Cl)(Oc2ccc3ccc4cccc5ccc2c3c45)=N1

SMILES: CC(C)(C)c1ccc2c(c1)c1cc(C(C)(C)C)ccc1n2-c1ccc(-c2ccc3c(c2)C(=O)c2ccc(-c4ccc(-n5c6ccc(C(C)(C)C)cc6c6cc(C(C)(C)C)ccc65)cc4)cc2C3=O)cc1
- emission maximum (in Cc1ccccc1): 558 nm
- emission maximum [1]: 550 nm

SMILES: O=S(=O)(c1ccc(-c2ccc(-c3nc4c5ccccc5c5ccccc5c4n3-c3ccccc3)cc2)cc1)c1ccc(-c2ccc(-c3nc4c5ccccc5c5ccccc5c4n3-c3ccccc3)cc2)cc1
- emission maximum (in C1CCOC1): 451 nm
- emission maximum (in CC#N): 479 nm
- emission maximum (in CC(C)=O): 468 nm
- emission maximum (in CC(C)OC(C)C): 437 nm
- emission maximum (in CCCCCC): 404 nm
- emission maximum (in CCCCOCCCC): 420 nm
- emission maximum (in CCN(CC)CC): 413 nm
- emission maximum (in CCOC(C)=O): 448 nm
- emission maximum (in CCOCC): 438 nm
- emission maximum (in CN(C)C=O): 478 nm
- emission maximum (in ClC(Cl)Cl): 450 nm
- emission maximum (in ClCCl): 461 nm
- emission maximum [1]: 443 nm

SMILES: COc1cc2c3c4c(c5ccc(C(C)(C)C)cc5c5c(OC)cc(OC)c(c2c(OC)c1OC)c45)=[N+]1C3=Nc2c3c4cc(OC)c(OC)c(OC)c4c4c(OC)cc(OC)c5c6cc(C(C)(C)C)ccc6c(c3c54)n2[B-]1(F)F
- emission maximum (in Cc1ccccc1): 907 nm

SMILES: O=c1c2cc(Cl)ccc2[nH]c2ccc(COO)cc12
- emission maximum (in O): 425 nm

- emission maximum (in CC#N): 411 nm
SMILES: CCOC(=O)c1c2c3c(ccc(F)c3c3cc4c(cc13)[Si](C)(C)O[Si]4(C)C)N(C)C2=O

SMILES: N#CC(C#N)=Cc1ccc2nc(C#Cc3ccc(N(c4ccc(C#Cc5nc6ccc(C=C(C#N)C#N)cc6s5)cc4)c4ccc(C#Cc5nc6ccc(C=C(C#N)C#N)cc6s5)cc4)cc3)sc2c1
- emission maximum (in Cc1ccccc1): 512 nm
